Measured values from US20210315991A1, “COMBINATION INCLUDING A CPG-C TYPE OLIGONUCLEOTIDE AND A PD-1 ANTAGONIST FOR TREATING BREAST CANCER” (Surefire Medical, Inc. d/b/a TriSalus Life Sciences, priority 2018, published 2021).

Test system: human peripheral blood mononuclear cells (PBMCs)
Test: IFN-α secretion by human PBMC (ELISA)
Format: cell-based
Conditions: for EC50: human PBMCs from healthy donors, IFN-α in supernatant by ELISA; for EC50 / IFN-α Max: 24 hours incubation; for IFN-α Max / maximum IFN-α levels induced, as compared to C69-10 and C69-11: human PBMCs; for IFN-α Max: ELISA, limit of maximal/minimal detection 13160/102 pg/ml; for maximum IFN-α levels induced, as compared to C69-10 and C69-11: 24 hours, result in words
Method: The activity of a candidate TLR9 agonist may be assessed in vitro by measuring interferon-alpha secretion by human peripheral blood mononuclear cells (PBMC) with an enzyme linked immunosorbent assay (ELISA). In particular, human PBMC are contacted with a series of graded doses of the candidate TLR9 agonist (and controls) for a period of about 24 hours. The EC50 value (in nM) and a max production level (in pg/mL) are then determined from a dose-response curve.
Activity of oligonucleotides (PN) was assessed in vitro by measurement of cytokine secretion by human peripheral blood mononuclear cells (PBMCs).
PBMCs were isolated from blood of healthy human donors using Ficoll-Paque. For IFN-α induction, duplicate cultures of PBMCs were incubated for 24 hours with increasing concentrations of oligonucleotides. IFN-α levels in cell culture supernatants were measured by ELISA (PBL Biomedical Laboratories, Piscataway, N.J.). The limit of maximal/minimal detection was 13160/102 pg/ml.

| Substance | EC50 | IFN-α Max | maximum IFN-α levels induced, as compared to C69-10 and C69-11 |
| --- | --- | --- | --- |
| C69-01: 5′-TCG AACGTTCGAACGTTCGAA CGTTCGAAT-3′ (SEQ ID NO: 4), CpG-C 2′-deoxyribopolynucleotide, phosphorothioate backbone (DNA TCGAACGTTCGAACGTTCGAACGTTCGAAT; DNA, all phosphorothioate, methylation of C not given here) | 61 nM | 6030 pg/mL | Higher maximum IFN-α levels |
| C69-11: 5′-TTTTCG AACGTTCGAACGTTCGAAATT-3′ (SEQ ID NO: 24), phosphorothioate backbone (DNA TTTTCGAACGTTCGAACGTTCGAAATT; DNA, all phosphorothioate, methylation of C not given here) | 65 nM | 1239 pg/mL | – |
| C69-10: 5′-TTCG AACGTTCGAACGTTCGAAT-3′ (SEQ ID NO: 23), phosphorothioate backbone (DNA TTCGAACGTTCGAACGTTCGAAT; DNA, all phosphorothioate, methylation of C not given here) | 58 nM | 3820 pg/mL | – |
| C69-02: 5′-TCG AACGTTCGAACGTTCGAA CGTT-3′ (SEQ ID NO: 5), phosphorothioate backbone (DNA TCGAACGTTCGAACGTTCGAACGTT; DNA, all phosphorothioate, methylation of C not given here) | 49 nM | 6008 pg/mL | Higher maximum IFN-α levels |
